Test results taken from the NIST ThermoML archive (doi:10.1016/j.jct.2006.10.017).

Key:
[1] = refractive index (Na D-line) (dimensionless); xn = mol fraction of the nth substance listed; conditions: 101 kPa, Liquid
[2] = xn = mol fraction of the nth substance listed; conditions: 101 kPa, Liquid
[3] = refractive index (Na D-line) (dimensionless); conditions: 101.33 kPa, Liquid
[4] = 101 kPa, Liquid

CCCCCCCC[n+]1ccn(C)c1.F[P-](F)(F)(F)(F)F [1-octyl-3-methylimidazolium hexafluorophosphate] + CCO
Conditions | mass density, 293.15 K [kg/m3] | mass density, 298.15 K [kg/m3] | mass density, 303.15 K [kg/m3] | refractive index, 293.15 K | refractive index, 298.15 K | refractive index, 303.15 K | speed of sound, 293.15 K [m/s] | speed of sound, 298.15 K [m/s] | speed of sound, 303.15 K [m/s]
[1], x1 = 0.0447 | – | – | – | 1.37484 | 1.37299 | 1.37124 | – | – | –
[1], x1 = 0.0982 | – | – | – | 1.38484 | 1.38315 | 1.38286 | – | – | –
[1], x1 = 0.1976 | – | – | – | 1.3975 | 1.3959 | 1.39478 | – | – | –
[1], x1 = 0.2897 | – | – | – | 1.40449 | 1.40291 | 1.40181 | – | – | –
[1], x1 = 0.3897 | – | – | – | 1.41009 | 1.40855 | 1.40752 | – | – | –
[1], x1 = 0.499 | – | – | – | 1.41448 | 1.41289 | 1.41174 | – | – | –
[1], x1 = 0.5896 | – | – | – | 1.41703 | 1.41553 | 1.41412 | – | – | –
[1], x1 = 0.708 | – | – | – | 1.41965 | 1.41817 | 1.41682 | – | – | –
[1], x1 = 0.8037 | – | – | – | 1.4215 | 1.42004 | 1.41858 | – | – | –
[1], x1 = 0.904 | – | – | – | 1.42304 | 1.42165 | 1.42026 | – | – | –
[1], x1 = 0.9502 | – | – | – | 1.42375 | 1.42231 | 1.42112 | – | – | –
[1], x1 = 1 | – | – | – | 1.4244 | 1.42302 | 1.42165 | – | – | –
[2], x1 = 0.0447 | 873.9 | 869.7 | 865.4 | – | – | – | 1180 | 1165 | 1151
[2], x1 = 0.0982 | 946.5 | 942.3 | 938.1 | – | – | – | 1206 | 1193 | 1180
[2], x1 = 0.1976 | 1035.8 | 1031.7 | 1027.5 | – | – | – | 1257 | 1245 | 1233
[2], x1 = 0.2897 | 1089.5 | 1085.3 | 1081.1 | – | – | – | 1295 | 1283 | 1271
[2], x1 = 0.3897 | 1130.4 | 1126.3 | 1122.2 | – | – | – | 1327 | 1315 | 1303
[2], x1 = 0.499 | 1162.8 | 1158.8 | 1154.8 | – | – | – | 1352 | 1340 | 1328
[2], x1 = 0.5896 | 1183.2 | 1179.3 | 1175.3 | – | – | – | 1369 | 1357 | 1344
[2], x1 = 0.708 | 1204.3 | 1200.4 | 1196.5 | – | – | – | 1386 | 1373 | 1360
[2], x1 = 0.8037 | 1217.9 | 1214 | 1210.2 | – | – | – | 1398 | 1385 | 1372
[2], x1 = 0.904 | 1229.9 | 1226 | 1222.2 | – | – | – | 1411 | 1397 | 1383
[2], x1 = 0.9502 | 1234.7 | 1230.9 | 1227.1 | – | – | – | 1416 | 1401 | 1387
[2], x1 = 1 | 1239.6 | 1235.7 | 1231.9 | – | – | – | 1424 | 1408 | 1393

CCO [ethanol] + CCCCCCn1cc[n+](C)c1.F[P-](F)(F)(F)(F)F
x2 = 0
Conditions | mass density, 293.15 K [kg/m3] | mass density, 298.15 K [kg/m3] | mass density, 303.15 K [kg/m3] | refractive index, 293.15 K | refractive index, 298.15 K | refractive index, 303.15 K | speed of sound, 293.15 K [m/s] | speed of sound, 298.15 K [m/s] | speed of sound, 303.15 K [m/s]
[1] | – | – | – | 1.36138 | 1.35929 | 1.35725 | – | – | –
[2] | 789.3 | 785.1 | 780.7 | – | – | – | 1160 | 1143 | 1127

CCCCCCCC[n+]1ccn(C)c1.F[P-](F)(F)(F)(F)F [1-octyl-3-methylimidazolium hexafluorophosphate]
Conditions | mass density, 293.15 K [kg/m3] | mass density, 298.15 K [kg/m3] | mass density, 303.15 K [kg/m3] | refractive index, 293.15 K | refractive index, 298.15 K | refractive index, 303.15 K | speed of sound, 293.15 K [m/s] | speed of sound, 298.15 K [m/s] | speed of sound, 303.15 K [m/s]
[3] | – | – | – | 1.4244 | 1.42302 | 1.42165 | – | – | –
[4] | 1239.6 | 1235.7 | 1231.9 | – | – | – | 1424 | 1408 | 1393

CCCCCCn1cc[n+](C)c1.F[P-](F)(F)(F)(F)F [1-hexyl-3-methylimidazolium hexafluorophosphate]
Conditions | mass density, 293.15 K [kg/m3] | mass density, 298.15 K [kg/m3] | mass density, 303.15 K [kg/m3] | refractive index, 293.15 K | refractive index, 298.15 K | refractive index, 303.15 K | speed of sound, 293.15 K [m/s] | speed of sound, 298.15 K [m/s] | speed of sound, 303.15 K [m/s]
[3] | – | – | – | 1.41923 | 1.41787 | 1.41643 | – | – | –
[4] | 1297.9 | 1293.7 | 1289.6 | – | – | – | 1438 | 1424 | 1411
